The source of these data is PubChem BioAssay (NCI).

Assay in all cases: NCI-60 cell line screen, 48 h
The test system of test [1] is 786-0 renal.
The test system of test [2] is COLO 205 colon.
The test system of test [3] is HCT-15 colon.
In test [4] the test system is M14 melanoma.
Test [5] concerns MCF7 breast.
The subject of test [6] is MOLT-4 leukemia.
Test [7] concerns NCI-H226 lung.
For test [8], the system named is SF-295 CNS.
For test [9], the system named is SK-MEL-28 melanoma.
Test [10] concerns SNB-75 CNS.
For test [11], the system named is TK-10 renal.
Test [12] concerns UACC-257 melanoma.
In test [13] the test system is CAKI-1 renal.

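1) Cells in 96-well plates. 2) Compound, 48 h, 5 concentrations. 3) Linear interpolation between surrounding doses. 4) Unreached endpoint = highest concentration. GI50 is the concentration that inhibits growth by half. The concentration for full growth arrest is given as TGI.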 Bounds are passed on as bounds.

For `CC1(C)OCC(C(O)C2OC(C)(C)OC2C=O)O1` (stereo not drawn), the TGI in test [1], in [2], in [3], in test [4], in test [5] and in test [6] was over 100 µM throughout. Besides, the TGI in [7], in [8], in test [9], in test [10], in test [11] and in test [12] was over 100 µM in each case.

Regarding `Nc1cccc2c1C(=O)c1cccc(N)c1C2=O`, the TGI in test [1], in test [13], in [2], in test [3], in test [4] and in [6] was over 100 µM each time. Besides, the TGI in test [7], in test [9], in [10], in [11] and in test [12] was over 100 µM in each case.

With `Cn1nc2n(c1=O)CCCN2`, the TGI in test [1], in test [2], in test [3], in test [7], in [8] and in test [9] was over 100 µM in each case. Further, the TGI in test [10], in [11] and in test [12] was over 100 µM throughout.

For the compound `CCOC(=O)c1c(N2CCCC2)ncn(-c2ccccc2)c1=S`, the TGI in [1], in test [2], in test [3], in test [4], in test [6] and in [7] was over 100 µM each time. In addition, the TGI in test [8], in [9], in test [10], in test [11] and in test [12] was over 100 µM in each case.

As to `CC(=O)OCC1OC(n2c3c(c(-c4cccc5ccccc45)c(C#N)c2=S)CCCC3)C(OC(C)=O)C(OC(C)=O)C1OC(C)=O` (stereo not drawn), the TGI in test [1], in test [2], in test [3], in [4], in [5] and in [6] was over 100 µM in each case. Besides, the TGI in [7], in test [8], in test [9], in test [11] and in test [12] was over 100 µM each time.

Take `COC(=O)C1CCC(=O)N1C(=O)Cc1ccc(OC)cc1` (stereo not drawn): the TGI in test [13], in test [2], in [3], in [4], in [7] and in test [8] was over 100 µM throughout. Besides, the TGI in [9], in test [10], in test [11] and in [12] was over 100 µM throughout.

With `Clc1ccc(N2N=C(c3cccc(Nc4ccncc4)c3)CC2c2ccc3c(c2)OCO3)cc1` (stereo not drawn), the GI50 is 1.44 µM in test [13]; 1.76 µM in test [3]; 1.97 µM in test [6]; 7.28 µM in test [7]; 1.79 µM in [8]; 1.58 µM in [10]. In addition, the TGI in test [13] was 2.9 µM; in test [3], 3.41 µM; in test [6], 4.58 µM; in test [7], 33.1 µM; in [8], 3.29 µM; in [10], 5.68 µM.

`C/C(=N\NC(=S)N1CCCCC1)c1cccc(C)n1`: the TGI in [1] was 1.19 µM; in test [13], 12.4 µM; in test [2], 13.7 µM; in [3], 21.6 µM; in test [4], 0.394 µM; in [6], over 100 µM. Further, the TGI is 0.4 µM in test [7]; over 33.4 µM in [8]; 36.9 µM in [9]; 6.19 µM in [10]; 21.3 µM in [11]; 12.1 µM in test [12].

With `Cc1ccccc1-n1c(C)nc2c1C(=O)c1ccccc1C2=O`, the TGI in [1], in test [13], in [3], in test [4], in [6] and in [7] was over 100 µM each time. The TGI in [8], in test [9], in test [11] and in [12] was over 100 µM throughout.

Take `N=c1oc2ccc3ccccc3c2cc1C(N)=O`: the TGI in test [1], in [13], in test [2], in test [3], in [4] and in test [6] was over 100 µM in each case. In addition, the TGI in test [7], in test [9], in test [10] and in test [12] was over 100 µM in each case.
